Assay results taken from PubChem BioAssay AID2060497 (Molecular Pharmacology Branch, DTP, NCI, 2025).

System: 317291-083-R-J1-PDC complex spheroids, viability
Assay: Anticancer human tumor 317291-083-R-J1-PDC patient-derived soft tissue sarcoma cell line growth inhibition [GQUAD]
Settings: for IC50: curve of first compound; for viability, T/C: stronger effect = lower value
Outline: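 Tumor cells were grown as complex spheroids with HUVEC endothelial cells and mesenchymal stem cells as stroma. G-quadruplex stabilizers were combined with targeted agents over half-log dilutions from near the clinical Cmax, or from 10 microM.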

[1] = second compound 0.0316 µM, first compound 0.0316 µM
[2] = second compound 0.0316 µM, first compound 0.316 µM
[3] = second compound 0.1 µM, first compound 0.0316 µM
[4] = second compound 0.1 µM, first compound 0.316 µM
[5] = second compound 0.316 µM, first compound 0.0316 µM
[6] = second compound 0.316 µM, first compound 0.316 µM
[7] = second compound 1 µM, first compound 0.0316 µM
[8] = second compound 1 µM, first compound 0.316 µM
[9] = second compound 3.16 µM, first compound 0.0316 µM
[10] = second compound 3.16 µM, first compound 0.316 µM
[11] = second compound 10 µM, first compound 0.0316 µM
[12] = second compound 10 µM, first compound 0.316 µM
[13] = second compound 0.0316 µM, first compound 0.1 µM
[14] = second compound 0.0316 µM, first compound 1 µM
[15] = second compound 0.0316 µM, first compound 3.16 µM
[16] = second compound 0.0316 µM, first compound 10 µM
[17] = second compound 0.1 µM, first compound 0.1 µM
[18] = second compound 0.1 µM, first compound 1 µM
[19] = second compound 0.1 µM, first compound 3.16 µM
[20] = second compound 0.1 µM, first compound 10 µM
[21] = second compound 0.316 µM, first compound 0.1 µM
[22] = second compound 0.316 µM, first compound 1 µM
[23] = second compound 0.316 µM, first compound 3.16 µM
[24] = second compound 0.316 µM, first compound 10 µM
[25] = second compound 1 µM, first compound 0.1 µM
[26] = second compound 1 µM, first compound 1 µM
[27] = second compound 1 µM, first compound 3.16 µM
[28] = second compound 1 µM, first compound 10 µM
[29] = second compound 3.16 µM, first compound 0.1 µM
[30] = second compound 3.16 µM, first compound 1 µM
[31] = second compound 3.16 µM, first compound 3.16 µM
[32] = second compound 3.16 µM, first compound 10 µM
[33] = second compound 10 µM, first compound 0.1 µM
[34] = second compound 10 µM, first compound 1 µM
[35] = second compound 10 µM, first compound 3.16 µM
[36] = second compound 10 µM, first compound 10 µM
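Also: spheroids exposed to compounds for one week before readout.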
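For viability, T/C in this document: percent viability relative to DMSO vehicle wells taken as 100%.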

Work on `CC[C@@]1(O)C(=O)OCc2c1cc1n(c2=O)Cc2cc3c(CN(C)C)c(O)ccc3nc2-1` + CN(C)c1ccc(Nc2c3ccc(NC(=O)CCN4CCCC4)cc3nc3cc(NC(=O)CCN4CCCC4)ccc23)cc1 yielded an IC50 (second compound 0.0316 µM) of 54.9 nM, an IC50 (second compound 0.1 µM) of 50.5 nM and an IC50 (second compound 0.316 µM) of 25.9 nM. For the same compound, the IC50 (second compound 1 µM) was under 0.999 nM, the IC50 (second compound 3.16 µM) was under 0.999 nM and the IC50 (second compound 10 µM) was under 0.999 nM. For the same compound, the viability, T/C (second compound 0.0316 µM, first compound 0.000999 µM) was 99.5%, the viability, T/C (second compound 0.0316 µM, first compound 0.00316 µM) was 98.3% and the viability, T/C (second compound 0.0316 µM, first compound 0.00999 µM) was 109%. The viability, T/C [1] was 70.3%, the viability, T/C (second compound 0.0316 µM, first compound 0.0999 µM) was 29% and the viability, T/C [2] was 16.7%. It also gave a viability, T/C (second compound 0.1 µM, first compound 0.000999 µM) of 95%, a viability, T/C (second compound 0.1 µM, first compound 0.00316 µM) of 85.4% and a viability, T/C (second compound 0.1 µM, first compound 0.00999 µM) of 94%. It also gave a viability, T/C [3] of 65.5%, a viability, T/C (second compound 0.1 µM, first compound 0.0999 µM) of 26.9% and a viability, T/C [4] of 15.9%. For the same compound, the viability, T/C (second compound 0.316 µM, first compound 0.000999 µM) was 79.8%, the viability, T/C (second compound 0.316 µM, first compound 0.00316 µM) was 90.8% and the viability, T/C (second compound 0.316 µM, first compound 0.00999 µM) was 74.7%. For the same compound, the viability, T/C [5] was 42.6%, the viability, T/C (second compound 0.316 µM, first compound 0.0999 µM) was 28.9% and the viability, T/C [6] was 14.9%. It also gave a viability, T/C (second compound 1 µM, first compound 0.000999 µM) of 49%, a viability, T/C (second compound 1 µM, first compound 0.00316 µM) of 42.6% and a viability, T/C (second compound 1 µM, first compound 0.00999 µM) of 48.5%. The viability, T/C [7] was 36.7%, the viability, T/C (second compound 1 µM, first compound 0.0999 µM) was 18.1% and the viability, T/C [8] was 9.13%. For the same compound, the viability, T/C (second compound 3.16 µM, first compound 0.000999 µM) was 28.4%, the viability, T/C (second compound 3.16 µM, first compound 0.00316 µM) was 24.1% and the viability, T/C (second compound 3.16 µM, first compound 0.00999 µM) was 22.8%. It also gave a viability, T/C [9] of 15.4%, a viability, T/C (second compound 3.16 µM, first compound 0.0999 µM) of 11.5% and a viability, T/C [10] of 9.22%. It also gave a viability, T/C (second compound 10 µM, first compound 0.000999 µM) of 9.99%, a viability, T/C (second compound 10 µM, first compound 0.00316 µM) of 16.1% and a viability, T/C (second compound 10 µM, first compound 0.00999 µM) of 5.13%. It also gave a viability, T/C [11] of 5.79%, a viability, T/C (second compound 10 µM, first compound 0.0999 µM) of 8.35% and a viability, T/C [12] of 4.27%.
`COc1cccc2c1C(=O)c1c(O)c3c(c(O)c1C2=O)CC(O)(C(=O)CO)CC3OC1CC(N)C(O)C(C)O1` (stereo unspecified) + CN(C)c1ccc(Nc2c3ccc(NC(=O)CCN4CCCC4)cc3nc3cc(NC(=O)CCN4CCCC4)ccc23)cc1 was tested, and the IC50 (second compound 0.0316 µM) was 71.7 nM, the IC50 (second compound 0.1 µM) was 65.3 nM and the IC50 (second compound 0.316 µM) was 57.4 nM. The IC50 (second compound 1 µM) was under 31.6 nM, the IC50 (second compound 3.16 µM) was under 31.6 nM and the IC50 (second compound 10 µM) was under 31.6 nM. For the same compound, the viability, T/C [1] was 82.7%, the viability, T/C [13] was 32.4% and the viability, T/C [2] was 21.1%. For the same compound, the viability, T/C [14] was 13.2%, the viability, T/C [15] was 0.97% and the viability, T/C [16] was 0.41%. It also gave a viability, T/C [3] of 64.1%, a viability, T/C [17] of 41.8% and a viability, T/C [4] of 22.2%. The viability, T/C [18] was 12.1%, the viability, T/C [19] was 1.05% and the viability, T/C [20] was 0.35%. The viability, T/C [5] was 64.2%, the viability, T/C [21] was 35.1% and the viability, T/C [6] was 23.6%. It also gave a viability, T/C [22] of 8.77%, a viability, T/C [23] of 1.59% and a viability, T/C [24] of 0.73%. It also gave a viability, T/C [7] of 29.1%, a viability, T/C [25] of 18.6% and a viability, T/C [8] of 14.9%. The viability, T/C [26] was 3.06%, the viability, T/C [27] was 0.9% and the viability, T/C [28] was 0.65%. The viability, T/C [9] was 28.8%, the viability, T/C [29] was 15.1% and the viability, T/C [10] was 12.1%. For the same compound, the viability, T/C [30] was 4.09%, the viability, T/C [31] was 0.51% and the viability, T/C [32] was 0.86%. For the same compound, the viability, T/C [11] was 9.63%, the viability, T/C [33] was 7.93% and the viability, T/C [12] was 3.54%. The viability, T/C [34] was 1.41%, the viability, T/C [35] was 1.22% and the viability, T/C [36] was 0.51%.
Work on `COc1cc(C2c3cc4c(cc3C(OC3OC5COC(C)OC5C(O)C3O)C3COC(=O)C23)OCO4)cc(OC)c1O` (stereo unspecified) + Cc1[nH]c2ccc(F)cc2c1-c1nc2c3cccnc3c3ncccc3c2[nH]1 yielded an IC50 (second compound 0.0316 µM) of 432 nM, an IC50 (second compound 0.1 µM) of 276 nM and an IC50 (second compound 0.316 µM) of 260 nM. For the same compound, the IC50 (second compound 1 µM) was 260 nM, the IC50 (second compound 3.16 µM) was 192 nM and the IC50 (second compound 10 µM) was 222 nM. The viability, T/C [1] was 103%, the viability, T/C [13] was 93% and the viability, T/C [2] was 59.5%. It also gave a viability, T/C [14] of 25.2%, a viability, T/C [15] of 17.9% and a viability, T/C [16] of 16.5%. For the same compound, the viability, T/C [3] was 96.2%, the viability, T/C [17] was 102% and the viability, T/C [4] was 43.5%. For the same compound, the viability, T/C [18] was 28.3%, the viability, T/C [19] was 17.6% and the viability, T/C [20] was 9.83%. For the same compound, the viability, T/C [5] was 113%, the viability, T/C [21] was 92.7% and the viability, T/C [6] was 40.6%. The viability, T/C [22] was 22.5%, the viability, T/C [23] was 14.5% and the viability, T/C [24] was 18.4%. The viability, T/C [7] was 84.7%, the viability, T/C [25] was 94.5% and the viability, T/C [8] was 41.8%. The viability, T/C [26] was 20.2%, the viability, T/C [27] was 13.6% and the viability, T/C [28] was 13.2%. The viability, T/C [9] was 80.8%, the viability, T/C [29] was 70% and the viability, T/C [10] was 34.5%. For the same compound, the viability, T/C [30] was 16.7%, the viability, T/C [31] was 16.1% and the viability, T/C [32] was 10%. The viability, T/C [11] was 73.1%, the viability, T/C [33] was 57.6% and the viability, T/C [12] was 47.7%. For the same compound, the viability, T/C [34] was 17.7%, the viability, T/C [35] was 11.9% and the viability, T/C [36] was 16.9%.
